According to US20230357313A1, “SERUM RESISTANT BIS-SULFHYDRYL SPECIFIC BIOTINYLATION REAGENT” (Miltenyi Biotec B.V. & Co. KG, priority 2022, published 2023):

Target: T1, biotinidase (Homo sapiens, UniProt P43251)
T1 construct: from tissue
T1 sequence (P43251 22-523): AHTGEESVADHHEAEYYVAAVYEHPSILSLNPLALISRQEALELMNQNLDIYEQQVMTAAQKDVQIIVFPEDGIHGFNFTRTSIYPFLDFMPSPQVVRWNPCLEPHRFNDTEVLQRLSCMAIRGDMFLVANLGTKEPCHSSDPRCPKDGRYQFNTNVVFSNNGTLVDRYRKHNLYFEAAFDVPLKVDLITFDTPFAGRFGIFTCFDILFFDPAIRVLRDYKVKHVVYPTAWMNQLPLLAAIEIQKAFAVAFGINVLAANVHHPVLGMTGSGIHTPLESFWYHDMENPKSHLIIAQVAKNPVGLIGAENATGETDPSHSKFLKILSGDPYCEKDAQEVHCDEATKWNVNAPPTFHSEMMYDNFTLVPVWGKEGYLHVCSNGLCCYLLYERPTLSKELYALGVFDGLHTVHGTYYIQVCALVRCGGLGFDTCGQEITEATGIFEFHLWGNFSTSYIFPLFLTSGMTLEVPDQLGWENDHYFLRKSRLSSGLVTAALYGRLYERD
Assay: Biotinidase inhibitor experiment: MS9 anti-CD33 Fab in human serum with or without inhibitor, LC-MS
Format: biochemical
Conditions: 1 mM in human serum, 4 h at 37° C.
Description: To verify that biotinidase, an enzyme found in the human body amongst other in human serum, causes the cleavage of the biotinamide bond an experiment was performed with a biotinidase inhibitor ((+) Biotin 4 Amidobenzoic Acid, Cayman, CAS. 102418-74-6). Therefore (+) Biotin 4 Amidobenzoic Acid was added at a concentration of 1 mM into the pre-incubation mix containing the human serum. As control no inhibitor was added. The anti-CD33 Fab with MS9 was pre-incubated for 4 hours at 37° C. Subsequently after the incubation the samples were purified via an IgG-CHI Affinity matrix as previously described.
FIG. 5A and FIG. 5B show biotinidase as causative agent for instability of linker in non-heat inactivated serum. Biotinylated (MS9) anti-CD33 FAbs were incubated in freshly prepared human serum for 4 h at 37° C. in the presence (left panel) or absence (right panel) of 1 mM Biotin 4-amidobenzoic acid.

For `O=C(CCCC[C@@H]1SC[C@@H]2NC(=O)N[C@@H]21)Nc1ccc(C(=O)[O-])cc1.[Na+]` [Biotin 4-amidobenzoic acid, (+) Biotin 4 Amidobenzoic Acid], the “effect of biotinidase inhibitor on biotinamide bond degradation” value was “protects the biotinamide bond from degradation”.
